What was measured:
Cholinesterase [1] = molecular target: T1, Cholinesterase (Equus caballus, UniProt P81908); experiment: Inhibition of equine BuChE measured for 1 min by Ellman's method
[2] = molecular target: Amyloid-beta precursor protein (Homo sapiens) (UniProt P05067); experiment: Inhibition of amyloid beta (1 to 40) (unknown origin) aggregation at 100 uM by thioflavin-T fluorescence method relative to rifampicin
Acetylcholinesterase = Acetylcholinesterase (Homo sapiens, UniProt P22303); experiment: Inhibition of human recombinant AChE measured for 1 min by Ellman's method
[3] = molecular target: Amyloid-beta precursor protein (Homo sapiens) (UniProt P05067); experiment: Inhibition of amyloid beta (1 to 40_1 to 42) (unknown origin) aggregation at 100 uM by thioflavin-T fluorescence method relative to rifampicin
[4] = molecular target: Amyloid-beta precursor protein (Homo sapiens) (UniProt P05067); experiment: Inhibition of amyloid beta (1 to 42) (unknown origin) aggregation at 100 uM by thioflavin-T fluorescence method relative to rifampicin
Cholinesterase [5] = molecular target: T1, Cholinesterase; experiment: Mixed type inhibition of equine BuChE by Lineweaver-Burk plot analysis
Cholinesterase [6] = molecular target: T1, Cholinesterase; experiment: Competitive inhibition of equine BuChE by Lineweaver-Burk plot analysis

T1 sequence (P81908 whole entry): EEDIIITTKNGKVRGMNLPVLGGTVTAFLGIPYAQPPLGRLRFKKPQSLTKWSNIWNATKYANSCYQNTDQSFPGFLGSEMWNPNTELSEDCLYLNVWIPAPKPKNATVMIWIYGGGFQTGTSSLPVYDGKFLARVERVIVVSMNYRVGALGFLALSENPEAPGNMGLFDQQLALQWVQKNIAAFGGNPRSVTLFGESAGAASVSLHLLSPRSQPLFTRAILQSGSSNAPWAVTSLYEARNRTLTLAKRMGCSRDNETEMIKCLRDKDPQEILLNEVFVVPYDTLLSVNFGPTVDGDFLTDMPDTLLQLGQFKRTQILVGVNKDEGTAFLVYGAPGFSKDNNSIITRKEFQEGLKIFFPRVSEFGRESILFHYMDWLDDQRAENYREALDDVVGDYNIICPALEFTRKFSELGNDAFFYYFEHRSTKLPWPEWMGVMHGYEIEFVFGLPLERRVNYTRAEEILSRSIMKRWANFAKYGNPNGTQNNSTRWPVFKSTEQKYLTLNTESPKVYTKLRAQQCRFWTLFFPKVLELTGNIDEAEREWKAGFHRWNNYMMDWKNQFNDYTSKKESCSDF
Acetylcholinesterase, sequence (P22303 whole entry): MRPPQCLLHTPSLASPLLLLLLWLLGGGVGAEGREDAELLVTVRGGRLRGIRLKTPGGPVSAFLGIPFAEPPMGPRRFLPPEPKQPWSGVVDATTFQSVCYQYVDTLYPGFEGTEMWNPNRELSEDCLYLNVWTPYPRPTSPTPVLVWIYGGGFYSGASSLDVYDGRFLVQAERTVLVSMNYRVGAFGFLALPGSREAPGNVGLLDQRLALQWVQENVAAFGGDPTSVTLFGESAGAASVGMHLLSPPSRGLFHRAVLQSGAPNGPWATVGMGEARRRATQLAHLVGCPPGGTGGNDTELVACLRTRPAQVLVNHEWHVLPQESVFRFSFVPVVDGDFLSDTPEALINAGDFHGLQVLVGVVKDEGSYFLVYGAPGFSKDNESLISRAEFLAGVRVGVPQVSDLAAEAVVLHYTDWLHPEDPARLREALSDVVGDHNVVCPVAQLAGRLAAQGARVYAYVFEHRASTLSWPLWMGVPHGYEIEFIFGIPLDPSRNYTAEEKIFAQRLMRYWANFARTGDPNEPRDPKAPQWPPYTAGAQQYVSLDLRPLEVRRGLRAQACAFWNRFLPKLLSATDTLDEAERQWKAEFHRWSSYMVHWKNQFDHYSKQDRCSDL
Amyloid-beta precursor protein (Homo sapiens), sequence (P05067 whole entry): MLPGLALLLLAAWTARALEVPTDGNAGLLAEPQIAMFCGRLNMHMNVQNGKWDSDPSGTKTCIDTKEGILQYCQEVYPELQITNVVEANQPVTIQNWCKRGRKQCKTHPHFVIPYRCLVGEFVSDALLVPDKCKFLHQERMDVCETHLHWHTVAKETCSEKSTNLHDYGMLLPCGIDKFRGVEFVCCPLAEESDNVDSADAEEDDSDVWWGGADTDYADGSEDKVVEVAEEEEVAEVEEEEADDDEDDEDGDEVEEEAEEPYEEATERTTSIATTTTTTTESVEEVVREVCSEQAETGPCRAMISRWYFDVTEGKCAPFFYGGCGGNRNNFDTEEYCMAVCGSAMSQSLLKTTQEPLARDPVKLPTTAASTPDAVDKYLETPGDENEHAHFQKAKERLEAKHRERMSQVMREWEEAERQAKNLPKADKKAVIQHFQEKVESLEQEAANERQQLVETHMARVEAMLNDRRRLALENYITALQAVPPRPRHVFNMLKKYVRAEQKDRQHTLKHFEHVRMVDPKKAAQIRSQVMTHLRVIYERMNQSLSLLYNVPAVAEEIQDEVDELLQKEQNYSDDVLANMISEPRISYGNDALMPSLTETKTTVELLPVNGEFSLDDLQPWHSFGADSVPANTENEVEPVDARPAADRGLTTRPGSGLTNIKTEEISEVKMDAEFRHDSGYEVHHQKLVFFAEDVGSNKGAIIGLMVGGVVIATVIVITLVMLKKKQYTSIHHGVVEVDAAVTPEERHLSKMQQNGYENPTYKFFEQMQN

Compound	IC50 (Cholinesterase [1]) [µM]	inhibition [2] [%]	IC50 (Acetylcholinesterase) [µM]	inhibition [3] [%]	inhibition [4] [%]	Ki (Cholinesterase [5]) [µM]	Ki (Cholinesterase [6]) [µM]
CCOc1ccc(/C=N/NC(=O)CN2CCN(Cc3ccccc3)CC2)cc1	98.8	69	81.4	69	69	–	–
COc1ccc(/C=N/NC(=O)CN2CCC(Cc3ccccc3)CC2)cc1	48.8	69	–	69	69	30.5	–
CCOc1ccc(/C=N/NC(=O)CN2CCC(Cc3ccccc3)CC2)cc1	67.3	69	–	69	69	–	31.5
COc1ccc(/C=N/NC(=O)CN2CCN(Cc3ccccc3)CC2)cc1OC	71.7	69	81.1	69	69	–	–
COc1ccc(/C=N/NC(=O)CN2CCC(Cc3ccccc3)CC2)cc1OC	55.1	69	62.8	69	69	–	–
COc1ccc(/C=N/NC(=O)CN2CCN(Cc3ccccc3)CC2)cc1	88.3	69	88.5	69	69	–	–

Source: ChEMBL document CHEMBL2321855, “Synthesis, molecular modeling and evaluation of novel N'-2-(4-benzylpiperidin-/piperazin-1-yl)acylhydrazone derivatives as dual inhibitors for cholinesterases and Aβ aggregation” (Bioorg Med Chem Lett, 2013)
